Measured values: article PMC11284788, “NN1213 – A Potent, Long-Acting, and Selective Analog of Human Amylin” (Journal of Medicinal Chemistry, 2024)
Converted amounts (≈) assume the structure as drawn. Numbered stars: 1 amine (or outer) side, 2 acyl side, 3 side chain; on linkers, the order of the positions; unused ones are H or OH. Bridge positions count the residues as written; N and C are the ends. Side chains are listed from the residue outwards. Peptide text beside a SMILES is read from it. * marks the point of attachment. C20 diacid = O=C(O)CCCCCCCCCCCCCCCCCCC(=O)*; γGlu = O=C(O)[C@H](CCC(=O)[*:2])N[*:1]

Key:
[1] = HMWP content by size-exclusion chromatography; assay type: physicochemical; settings: covalent dimers and polymers prior to fibril formation testing, SEC, % of total absorbance area at 215 nm
Summary of the method: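 Amylin analogs analysed before fibril-formation testing by isocratic SEC in 0.5 M NaCl, 10 mM sodium dihydrogen phosphate, 5 mM ortho-phosphoric acid, 50% (v/v) 2-propanol. HMWP (covalent dimers/polymers) given as peak absorbance area percentage of total, assuming equal extinction coefficients for HMWP and main peak.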

[2] = target: T1, hCTR (Homo sapiens, UniProt P30988); test: scintillation proximity binding assay, hCTR membranes; design: expressed in transfected cells; host or cells: BHK tk-ts 13, transient (FuGENE 6); membranes for the SPA, whole cells for the species-specific assays
T1 sequence (P30988 25-474): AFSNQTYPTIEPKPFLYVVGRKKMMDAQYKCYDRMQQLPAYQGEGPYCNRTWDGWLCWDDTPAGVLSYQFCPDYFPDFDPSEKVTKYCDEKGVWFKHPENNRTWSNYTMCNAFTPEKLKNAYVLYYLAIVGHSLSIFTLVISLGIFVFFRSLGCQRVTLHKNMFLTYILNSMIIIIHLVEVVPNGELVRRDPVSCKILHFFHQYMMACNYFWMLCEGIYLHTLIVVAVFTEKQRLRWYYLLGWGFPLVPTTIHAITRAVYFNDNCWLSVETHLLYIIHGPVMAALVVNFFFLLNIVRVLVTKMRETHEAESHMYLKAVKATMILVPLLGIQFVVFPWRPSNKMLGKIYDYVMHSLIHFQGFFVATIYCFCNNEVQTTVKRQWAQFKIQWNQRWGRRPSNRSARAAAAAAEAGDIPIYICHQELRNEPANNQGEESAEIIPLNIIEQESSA
Protocol: The apparent binding affinities were determined using a scintillation proximity assay with beads from PerkinElmer and cell membranes containing the AMY3R or CTRs. […] Membranes were harvested and membranes were prepared and kept at −80 °C until use. The assay was performed in a 384-well Optiplate (PerkinElmer). Membranes were mixed with scintillation proximity assay beads in a 1:1 ratio. […] Samples were analyzed on a TopCounter (Packard). The IC50 values were calculated using GraphPad Prism. See Supporting Information S7: SAR Screening Assay Methods (Binding Assays (Human and Rat)) for more information.
Binding Assays (Human and Rat). Brief descriptions of the methods used to determine binding affinities for SAR analysis are described below. Curves and IC50 values were plotted and calculated in GraphPad Prism using nonlinear regression (one site binding competition analysis), with pIC50 values […]
values were used to calculate the binding affinity ratios in order to express the selectivity of compounds for the AMY3R versus the CTR.
CTR Binding Assay. The binding assay was performed using scintillation proximity assay (SPA) beads (RPNQ0001) from PerkinElmer and cell membranes containing either the hCTR or rCTR. BHK […]
Membranes were prepared in the following way: the cells were rinsed with PBS and incubated with Versene for approximately 5 min before harvesting. The cells were flushed with PBS and the cell-suspension was centrifuged for 5 min at 1000 rpm. Cells were homogenized (Ultra Turrax) in a buffer […]
containing 20 mM Na-HEPES and 0.1 mM EDTA (pH 7.4, buffer 2). The resulting pellet was re-suspended in buffer 2 and protein concentration was measured (BCA protein assay, Pierce). The homogenate was kept cold during the whole procedure. The membranes were stored at –80 °C until […]
The binding assay was performed in a 384-well Optiplate (PerkinElmer) in a total volume of 40 μL.
Membranes were mixed with SPA beads in a 1:1 ratio. […]
mg/well. Test compounds were dissolved in DMSO and further diluted in assay buffer (50 mM HEPES, pH 7.4, 1 mM CaCl2, 5 mM MgCl2, 0.1% ovalbumin, and 0.02% Tween-20).
Calcitonin (NEX422 PerkinElmer) was dissolved in assay buffer and added to the Optiplate at a final […]
prior to centrifugation (1500 rpm, 10 min). Samples were analyzed on TopCounter (Packard).

[3] = Solubility versus pH profile
[4] = target: T2, rat AMY3R (Rattus norvegicus, UniProt P32214+Q9JJ73); test: cAMP FlashPlate assay, rat AMY3R; assay type: cell-based; settings: ratio of cAMP EC50 values
T2 construct: expressed in transfected cells; host or cells: BHK tk-ts 13, transient co-transfection (FuGENE 6)
T2 sequence (P32214 25-479 isoform P32214-2 limits assumed): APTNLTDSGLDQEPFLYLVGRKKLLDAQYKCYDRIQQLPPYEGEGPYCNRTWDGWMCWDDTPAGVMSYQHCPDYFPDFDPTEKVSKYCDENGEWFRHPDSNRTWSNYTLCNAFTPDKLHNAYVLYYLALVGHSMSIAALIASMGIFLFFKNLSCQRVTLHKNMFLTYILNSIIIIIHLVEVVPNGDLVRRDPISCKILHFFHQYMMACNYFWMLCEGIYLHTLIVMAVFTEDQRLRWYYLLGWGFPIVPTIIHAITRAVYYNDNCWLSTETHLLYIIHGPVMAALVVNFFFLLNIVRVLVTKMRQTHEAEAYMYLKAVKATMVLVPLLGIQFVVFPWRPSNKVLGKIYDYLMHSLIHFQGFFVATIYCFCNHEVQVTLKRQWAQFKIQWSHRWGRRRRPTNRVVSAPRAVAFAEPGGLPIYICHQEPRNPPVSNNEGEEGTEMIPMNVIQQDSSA
T2 sequence (Q9JJ73 23-147 partner): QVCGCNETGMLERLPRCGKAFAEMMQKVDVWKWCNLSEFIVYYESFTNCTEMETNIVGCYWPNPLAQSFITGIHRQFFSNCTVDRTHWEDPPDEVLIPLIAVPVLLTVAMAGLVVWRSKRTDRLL

[5] = bis-tris-propane buffer, pH 6, aqueous buffer
[6] = bis-tris-propane buffer, pH 6.5, aqueous buffer
[7] = bis-tris-propane buffer, pH 7, aqueous buffer
[8] = bis-tris-propane buffer, pH 7.5, aqueous buffer
[9] = bis-tris-propane buffer, pH 8, aqueous buffer
[10] = lactate buffer, pH 4, aqueous buffer
[11] = lactate buffer, pH 5, aqueous buffer

Row | HMWP ([1]; analogs 1–9 (pH 7.5 series)) | hCTR pIC50 ([2]; SPA binding assay, Tables S13 and S15) | IC50 ([2]; SPA, BHK cell membranes, 125I-Calcitonin 75 pM, 120 min 25 °C, read-out: hCTR IC50) | solubility kinetic [3, 5] | solubility kinetic [3, 6] | solubility kinetic [3, 7] | solubility kinetic [3, 8] | solubility kinetic [3, 9] | solubility kinetic [3, 10] | solubility kinetic [3, 11] | ratio rCTR/rAMY3R [4] | HMWP ([1]; analogs 10–21 (pH 4.0 series)) | Compound
1 | 2.5% | 7.71 | 0.0195 µM | ≥ 200 µM | 190 µM (≈ 857 µg/mL) | ≥ 200 µM | ≥ 200 µM | ≥ 200 µM | ≥ 200 µM | ≥ 200 µM | 1338 | – | CC[C@H](C)[C@H](NC(=O)[C@H](C)NC(=O)CNC(=O)[C@H](Cc1ccccc1)NC(=O)[C@H](CC(N)=O)NC(=O)[C@@H]1CCCN1C(=O)[C@H](CO)NC(=O)[C@H](CO)NC(=O)[C@H](Cc1c[nH]cn1)NC(=O)[C@H](CCCNC(=N)N)NC(=O)[C@H](CC(C)C)NC(=O)[C@H](Cc1ccccc1)NC(=O)[C@H](CC(=O)O)NC(=O)[C@H](C)NC(=O)[C@H](CC(C)C)NC(=O)[C@H](CCCNC(=N)N)NC(=O)[C@H](CCC(N)=O)NC(=O)[C@@H](NC(=O)[C@H](C)NC(=O)[C@@H]1CSSC[C@H](NC(=O)[C@@H](N)CCCCNC(=O)CC[C@H](NC(=O)CC[C@H](NC(=O)CCCCCCCCCCCCCCCCCCC(=O)O)C(=O)O)C(=O)O)C(=O)N[C@@H](CC(N)=O)C(=O)N[C@@H]([C@@H](C)O)C(=O)N[C@@H](C)C(=O)N[C@@H]([C@@H](C)O)C(=O)N1)[C@@H](C)O)C(=O)N1CCC[C@H]1C(=O)N[C@@H](CO)C(=O)N[C@@H](CO)C(=O)N[C@H](C(=O)N[C@@H](CC(N)=O)C(=O)N[C@H](C(=O)NCC(=O)N[C@@H](CO)C(=O)N[C@@H](CC(=O)O)C(=O)N[C@H](C(=O)N[C@@H](Cc1ccc(O)cc1)C(N)=O)[C@@H](C)O)C(C)C)[C@@H](C)O [Peptide 6] (H-K([γGlu-γGlu-C20 diacid])CNTATCATQRLADFLRHSSPNFGAIPSSTNVGSDTY-NH2; disulfide 2-7)
2 | 3% | – | – | 189 µM (≈ 853 µg/mL) | ≥ 200 µM | 195 µM (≈ 880 µg/mL) | ≥ 200 µM | ≥ 200 µM | 96 µM (≈ 433 µg/mL) | 141 µM (≈ 636 µg/mL) | – | – | CC(C)C[C@H](NC(=O)[C@H](CCCNC(=N)N)NC(=O)[C@H](CCC(N)=O)NC(=O)[C@@H](NC(=O)[C@H](C)NC(=O)[C@@H]1CSSC[C@H](NC(=O)[C@@H](N)CCCCNC(=O)CC[C@H](NC(=O)CC[C@H](NC(=O)CCCCCCCCCCCCCCCCCCC(=O)O)C(=O)O)C(=O)O)C(=O)N[C@@H](CC(N)=O)C(=O)N[C@@H]([C@@H](C)O)C(=O)N[C@@H](C)C(=O)N[C@@H]([C@@H](C)O)C(=O)N1)[C@@H](C)O)C(=O)N[C@@H](C)C(=O)N[C@@H](CC(=O)O)C(=O)N[C@@H](Cc1ccccc1)C(=O)N[C@@H](CC(C)C)C(=O)N[C@@H](CCCNC(=N)N)C(=O)N[C@@H](Cc1c[nH]cn1)C(=O)N[C@@H](CO)C(=O)N[C@@H](CO)C(=O)N[C@@H](CC(N)=O)C(=O)N1CCC[C@H]1C(=O)N[C@@H](Cc1ccccc1)C(=O)NCC(=O)N[C@@H](C)C(=O)N1CCC[C@H]1C(=O)N[C@@H](CC(C)C)C(=O)N[C@@H](CO)C(=O)N[C@@H](CO)C(=O)N[C@H](C(=O)N[C@@H](CC(N)=O)C(=O)N[C@H](C(=O)NCC(=O)N[C@@H](CO)C(=O)N[C@@H](CC(=O)O)C(=O)N[C@H](C(=O)N[C@@H](Cc1ccc(O)cc1)C(N)=O)[C@@H](C)O)C(C)C)[C@@H](C)O [Peptide 7] (H-K([γGlu-γGlu-C20 diacid])CNTATCATQRLADFLRHSSNPFGAPLSSTNVGSDTY-NH2; disulfide 2-7)
3 | – | – | – | ≥ 200 µM | ≥ 200 µM | ≥ 200 µM | 183 µM (≈ 812 µg/mL) | 109 µM (≈ 484 µg/mL) | ≥ 200 µM | ≥ 200 µM | – | 4.9% | CC[C@H](C)[C@H](NC(=O)[C@H](C)NC(=O)CNC(=O)[C@H](Cc1ccccc1)NC(=O)[C@H](CC(N)=O)NC(=O)[C@@H]1CCCN1C(=O)[C@H](CO)NC(=O)[C@H](CO)NC(=O)[C@H](Cc1c[nH]cn1)NC(=O)[C@H](CCCNC(=N)N)NC(=O)[C@H](CC(C)C)NC(=O)[C@H](Cc1ccccc1)NC(=O)[C@H](CCC(=O)O)NC(=O)[C@H](C)NC(=O)[C@H](CC(C)C)NC(=O)[C@H](CCCNC(=N)N)NC(=O)[C@H](CCC(N)=O)NC(=O)[C@@H](NC(=O)[C@H](C)NC(=O)[C@@H]1CSSC[C@H](NC(=O)[C@@H](N)CCCCNC(=O)CC[C@H](NC(=O)CCCCCCCCCCCCCCCCCCC(=O)O)C(=O)O)C(=O)N[C@@H](CC(N)=O)C(=O)N[C@@H]([C@@H](C)O)C(=O)N[C@@H](C)C(=O)N[C@@H]([C@@H](C)O)C(=O)N1)[C@@H](C)O)C(=O)N1CCC[C@H]1C(=O)N[C@@H](CO)C(=O)N[C@@H](CO)C(=O)N[C@H](C(=O)N[C@@H](CC(N)=O)C(=O)N[C@H](C(=O)NCC(=O)N[C@@H](CO)C(=O)N[C@@H](CCCNC(=N)N)C(=O)N[C@H](C(=O)N[C@@H](Cc1ccc(O)cc1)C(N)=O)[C@@H](C)O)C(C)C)[C@@H](C)O [Peptide 20] (H-K([γGlu-C20 diacid])CNTATCATQRLAEFLRHSSPNFGAIPSSTNVGSRTY-NH2; disulfide 2-7)
